Data as given in patent US20240158446A1, “CYCLIC COMPOUND HAVING SELECTIVE INHIBITORY ACTION ON KRAS OVER HRAS AND NRAS” (CHUGAI SEIYAKU KABUSHIKI KAISHA, priority 2021, published 2024).
Read-outs that look alike come from different tables or passages of the source.

Tests used:
[1] = target: GDP-bound KRAS wild-type protein (Homo sapiens, UniProt P01116); assay: Binding to KRAS by surface plasmon resonance (SPR), Single Cycle Kinetics; settings: SPR, Single Cycle Kinetics
[2] = target: GDP-bound NRAS wild-type protein (Homo sapiens, UniProt P01111); assay: Binding to NRAS by surface plasmon resonance (SPR), Single Cycle Kinetics; settings: SPR; for NRAS/KRAS (ratio of KD value for NRAS to KD value for KRAS): GDP-bound NRAS wild-type protein vs GDP-bound KRAS wild-type protein
[3] = target: GDP-bound HRAS wild-type protein (Homo sapiens, UniProt P01112); assay: Binding to HRAS by surface plasmon resonance (SPR), Single Cycle Kinetics; settings: SPR; for HRAS/KRAS (ratio of KD value for HRAS to KD value for KRAS): GDP-bound HRAS wild-type protein vs GDP-bound KRAS wild-type protein
[4] = tested on: human lung cancer strain NCI-H441;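 note: cell proliferation inhibition after four days measured by CellTiter-Glo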
[5] = GDP-bound KRAS wild-type protein, read-out: KRAS KD
[6] = read-out: NCI-H441 cell proliferation inhibitory activity, 50% proliferation inhibitory concentration (IC50 value), NCI-H441, four days, CellTiter-Glo

Sequence of GDP-bound HRAS wild-type protein (P01112 whole entry): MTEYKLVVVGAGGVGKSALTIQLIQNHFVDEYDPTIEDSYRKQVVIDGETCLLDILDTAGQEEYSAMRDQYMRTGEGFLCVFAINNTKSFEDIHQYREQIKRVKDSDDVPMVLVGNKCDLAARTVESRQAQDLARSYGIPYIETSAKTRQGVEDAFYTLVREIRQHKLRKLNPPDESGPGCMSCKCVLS
Sequence of GDP-bound NRAS wild-type protein (P01111 whole entry): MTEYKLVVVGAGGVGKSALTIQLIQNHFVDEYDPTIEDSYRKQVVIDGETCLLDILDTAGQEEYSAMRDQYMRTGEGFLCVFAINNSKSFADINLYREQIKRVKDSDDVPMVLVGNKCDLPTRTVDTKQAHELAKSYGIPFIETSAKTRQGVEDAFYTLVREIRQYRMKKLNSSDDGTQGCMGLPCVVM
Sequence of GDP-bound KRAS wild-type protein (P01116 whole entry): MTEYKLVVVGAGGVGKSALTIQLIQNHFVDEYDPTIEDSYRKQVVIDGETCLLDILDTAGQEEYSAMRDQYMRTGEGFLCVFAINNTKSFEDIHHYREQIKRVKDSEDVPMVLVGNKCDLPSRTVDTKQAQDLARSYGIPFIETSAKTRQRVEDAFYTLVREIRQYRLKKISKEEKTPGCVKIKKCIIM

SMILES | Kd [1, 5] [nM] | IC50 [4, 6] [nM] | IC50 [4] [nM] | Kd ([1]; 1:1 binding model, read-out: KD value with respect to GDP-bound KRAS wild-type protein) [nM] | NRAS/KRAS (ratio of KD value for NRAS to KD value for KRAS) [2] | ratio of the KD value with respect to GDP-bound NRAS wild-type protein to the KD value with respect to KRAS [2] | HRAS/KRAS (ratio of KD value for HRAS to KD value for KRAS) [3] | ratio of the KD value with respect to GDP-bound HRAS wild-type protein to the KD value with respect to KRAS [3]
CC[C@H](C)[C@@H]1NC(=O)[C@@H]2CCCCc3ccc(cc3)C[C@@H](C(=O)N(C)CC(=O)N[C@@H](CCc3ccc(C(F)(F)F)c(OC)c3)C(=O)N3C[C@H](OC4CCC4)C[C@H]3C(=O)NC3(CC(C)(C)C3)C(=O)N(C)[C@@H](C3CCCC3)C(=O)N(C)[C@H](C(=O)N(C)CC)CC(=O)N2C)N2CC/C=C\C[C@@H](C2=O)N(C)C(=O)CN(C)C1=O [PP3079] | 0.05 | 1.8 | 1.8 | – | A (a compound having 10 or more and less than 20 is denoted as A) | A (a compound having 10 or more and less than 20 is denoted as A) | B (a compound having 3 or more and less than 10 is denoted as B) | B (a compound having 3 or more and less than 10 is denoted as B)
CC[C@H](C)[C@@H]1NC(=O)[C@@H]2CCCCc3ccc(cc3)C[C@@H](C(=O)N(C)CC(=O)N[C@@H](CCc3ccc(C(F)(F)F)c(OC)c3)C(=O)N3C[C@H](OC4CCCC4)C[C@H]3C(=O)NC3(CC(C)(C)C3)C(=O)N(C)[C@@H](C3CCCC3)C(=O)N(C)[C@H](C(=O)N(C)C)CC(=O)N2C)N2CC/C=C\C[C@@H](C2=O)N(C)C(=O)CN(C)C1=O [PP3080] | 0.037 | 4.3 | – | – | A (a compound having 10 or more and less than 20 is denoted as A) | A (a compound having 10 or more and less than 20 is denoted as A) | B (a compound having 3 or more and less than 10 is denoted as B) | B (a compound having 3 or more and less than 10 is denoted as B)
CC[C@H](C)[C@@H]1NC(=O)[C@@H]2CCCCc3ccc(cc3)C[C@@H](C(=O)N(C)CC(=O)N[C@@H](CCc3ccc(C(F)(F)F)c(OC)c3)C(=O)N3CC4(CC4)C[C@H]3C(=O)NC3(CC(C)(C)C3)C(=O)N(C)[C@@H](C3CCCC3)C(=O)N(C)[C@H](C(=O)N(C)CC)CC(=O)N2C)N2CC/C=C\C[C@@H](C2=O)N(C)C(=O)CN(C)C1=O [PP3081] | – | 1.9 | – | 0.068 | A (a compound having 10 or more and less than 20 is denoted as A) | A (a compound having 10 or more and less than 20 is denoted as A) | B (a compound having 3 or more and less than 10 is denoted as B) | B (a compound having 3 or more and less than 10 is denoted as B)
CC[C@H](C)[C@@H]1NC(=O)[C@@H]2CCCc3ccc(cc3)C[C@@H](C(=O)N(C)CC(=O)N[C@@H](CCc3ccc(C(F)(F)F)c(OC)c3)C(=O)N3CC4(CC4)C[C@H]3C(=O)NC3(CC(C)(C)C3)C(=O)N(C)[C@@H](C3CCCC3)C(=O)N(C)[C@H](C(=O)N(C)CC)CC(=O)N2C)N2CC/C=C\C[C@@H](C2=O)N(C)C(=O)CN(C)C1=O [PP3087] | 0.22 | 6.9 | – | – | A (a compound having 10 or more and less than 20 is denoted as A) | A (a compound having 10 or more and less than 20 is denoted as A) | B (a compound having 3 or more and less than 10 is denoted as B) | B (a compound having 3 or more and less than 10 is denoted as B)
CCO[C@@H]1C[C@H]2C(=O)N(C)C3(CC(C)(C)C3)C(=O)N(C)[C@@H](C3CCCC3)C(=O)N(C)[C@H](C(=O)N(C)C)CC(=O)N(C)[C@H]3CCCCCCc4ccc(cc4)C[C@@H](C(=O)N(C)CC(=O)N[C@@H](CCc4ccc(C(F)(F)F)c(OC)c4)C(=O)N2C1)N1CC/C=C\C[C@@H](C1=O)N(C)C(=O)CN(C)C(=O)[C@H]([C@@H](C)CC)NC3=O [PP3090] | 0.033 | 1.3 | – | – | A (a compound having 10 or more and less than 20 is denoted as A) | A (a compound having 10 or more and less than 20 is denoted as A) | B (a compound having 3 or more and less than 10 is denoted as B) | B (a compound having 3 or more and less than 10 is denoted as B)

Now from value to molecule, other results behind:

Kd [1, 5] [nM] | IC50 [4, 6] [nM] | IC50 [4] [nM] | Kd ([1]; 1:1 binding model, read-out: KD value with respect to GDP-bound KRAS wild-type protein) [nM] | SMILES | NRAS/KRAS (ratio of KD value for NRAS to KD value for KRAS) [2] | ratio of the KD value with respect to GDP-bound NRAS wild-type protein to the KD value with respect to KRAS [2] | HRAS/KRAS (ratio of KD value for HRAS to KD value for KRAS) [3] | ratio of the KD value with respect to GDP-bound HRAS wild-type protein to the KD value with respect to KRAS [3]
0.048 | 2.3 | – | – | CC[C@H](C)[C@@H]1NC(=O)[C@@H]2CCCCc3ccc(cc3)C[C@@H](C(=O)N(C)CC(=O)N[C@@H](CCc3ccc(C(F)(F)F)c(OC)c3)C(=O)N3C[C@H](OC(C)C)C[C@H]3C(=O)NC3(CC(C)(C)C3)C(=O)N(C)[C@@H](C3CCCC3)C(=O)N(C)[C@H](C(=O)N(C)CC)CC(=O)N2C)N2CC/C=C\C[C@@H](C2=O)N(C)C(=O)CN(C)C1=O [PP3078] | A (a compound having 10 or more and less than 20 is denoted as A) | A (a compound having 10 or more and less than 20 is denoted as A) | B (a compound having 3 or more and less than 10 is denoted as B) | B (a compound having 3 or more and less than 10 is denoted as B)
0.11 | 6.3 | – | – | CC[C@H](C)[C@@H]1NC(=O)[C@@H]2CCCc3ccc(cc3)C[C@@H](C(=O)N(C)CC(=O)N[C@@H](CCc3ccc(C(F)(F)F)c(OC)c3)C(=O)N3C[C@H](OC4CCC4)C[C@H]3C(=O)NC3(CC(C)(C)C3)C(=O)N(C)[C@@H](C3CCCC3)C(=O)N(C)[C@H](C(=O)N(C)CC)CC(=O)N2C)N2CC/C=C\C[C@@H](C2=O)N(C)C(=O)CN(C)C1=O [PP3085] | A (a compound having 10 or more and less than 20 is denoted as A) | A (a compound having 10 or more and less than 20 is denoted as A) | B (a compound having 3 or more and less than 10 is denoted as B) | B (a compound having 3 or more and less than 10 is denoted as B)
0.2 | 7.9 | – | – | CC[C@H](C)[C@@H]1NC(=O)[C@@H]2CCCc3ccc(cc3)C[C@@H](C(=O)N(C)CC(=O)N[C@@H](CCc3ccc(C(F)(F)F)c(OC)c3)C(=O)N3C[C@H](OC4CCCC4)C[C@H]3C(=O)NC3(CC(C)(C)C3)C(=O)N(C)[C@@H](C3CCCC3)C(=O)N(C)[C@H](C(=O)N(C)CC)CC(=O)N2C)N2CC/C=C\C[C@@H](C2=O)N(C)C(=O)CN(C)C1=O [PP3086] | B (a compound having 3 or more and less than 10 is denoted as B) | B (a compound having 3 or more and less than 10 is denoted as B) | B (a compound having 3 or more and less than 10 is denoted as B) | B (a compound having 3 or more and less than 10 is denoted as B)
0.34 | 15.1 | – | – | CCCO[C@@H]1C[C@H]2C(=O)NC3(CC(C)(C)C3)C(=O)N(C)[C@@H](C3CCCC3)C(=O)N(C)[C@H](C(=O)N(C)CC)CC(=O)N(C)[C@H]3CCCc4ccc(cc4)C[C@@H](C(=O)N(C)CC(=O)N[C@@H](CCc4ccc(C(F)(F)F)c(OC)c4)C(=O)N2C1)N1CC/C=C\C[C@@H](C1=O)N(C)C(=O)CN(C1CC1)C(=O)[C@H]([C@@H](C)CC)NC3=O [PP3088] | B (a compound having 3 or more and less than 10 is denoted as B) | B (a compound having 3 or more and less than 10 is denoted as B) | B (a compound having 3 or more and less than 10 is denoted as B) | B (a compound having 3 or more and less than 10 is denoted as B)
0.33 | 27 | – | – | CCCO[C@@H]1C[C@H]2C(=O)NC3(CC(C)(C)C3)C(=O)N(C)[C@@H](C3CCCC3)C(=O)N(C)[C@H](C(=O)N(C)CC)CC(=O)N(C)[C@H]3CCCc4ccc(cc4)C[C@@H](C(=O)N(C)CC(=O)N[C@@H](CCc4ccc(Cl)c(Cl)c4)C(=O)N2C1)N1CC/C=C\C[C@@H](C1=O)N(C)C(=O)CN(C)C(=O)[C@H]([C@@H](C)CC)NC3=O [PP3089] | B (a compound having 3 or more and less than 10 is denoted as B) | B (a compound having 3 or more and less than 10 is denoted as B) | B (a compound having 3 or more and less than 10 is denoted as B) | B (a compound having 3 or more and less than 10 is denoted as B)
